Laboratory results: patent publication US20100226857A1, “TUMOR CELL DIFFERENTIATION AGENTS AS CHEMICAL INHIBITORS AND TREATMENTS FOR INTRACELLULAR PARASITES” (priority 2006, published 2010)
Values after ≈ are worked out from the molar mass of the structure shown. Where two headings read alike, the source gives them in different places.

Key:
T. gondii tachyzoites [1] = test: T. gondii tachyzoite proliferation assay in HS68 cells (tachyzoite count); assay type: cell-based, Toxoplasma gondii
Protocol: Parasite propagation—The RH strain of Toxoplasma gondii was grown in BM bovine macrophage cells or HS68 human foreskin fibroblast cells obtained from the American Type Culture Collection (Rockville, Md.). HS68 cells were grown in RPMI 1640 medium (Mediatech, Inc., Herndon, Va.) plus 10% fetal bovine serum (Atlanta Biologicals, Lawrenceville, Ga.), 1 mM sodium pyruvate and 100 U/ml each of penicillin and streptomycin. Parasites were harvested from infected cultures of HS68 cells growing in T-75 cm^2 flasks. After removing the culture medium, the cells were scraped into 5 ml of phosphate-buffered saline and a cell lysate obtained by passing through a 26-gauge needle. To purify the parasites, the cell lysate was filtered through a 3 micron (micrometer) filter.
(§1) Proliferation assays: HS68 cells were replica plated in 48-well dishes, and grown to confluence prior to infection with 5-10×10^4 freshly purified T. gondii tachyzoites/well. After 2 hours, the media and non-infective tachyzoites were removed, and replaced with RPMI medium containing 2% fetal bovine serum plus 1 mM sodium pyruvate, penicillin (100 U), streptomycin (100 U) and test agent or a vehicle control. The proliferation assays were terminated 48-72 hours post-infection when the untreated cells were heavily infected. All of the culture media were removed from the wells, and the tachyzoites in the media were fixed by dilution (1:1) into phosphate-buffered saline containing 10% formaldehyde. The tachyzoites were collected by brief centrifugation (30 seconds, […]) at room temperature using a tabletop microfuge. The tachyzoites were resuspended in 100 ul of phosphate-buffered saline, and duplicate aliquots were counted using a hemocytometer. […] The monolayer of HS68 cells in each well was fixed and stained for 5 minutes using a solution of 50% ethanol-5% formaldehyde-0.1% crystal violet in 0.85% sodium chloride, then rinsed with water, and air-dried. The minimum inhibitory concentration (MIC) of compounds that suppressed Toxoplasma-induced lysis of the HS68 cells was determined visually by counting the number of plaques/well in the monolayer.

T. gondii = test: Plaque suppression / protection of HS68 monolayer from T. gondii; assay type: cell-based, Toxoplasma gondii; details: for MIC IC50 (ratio MIC/IC50): MIC plaque suppression relative to IC50 tachyzoite count; for MIC: Toxoplasma gondii, read-out: MIC (uM) Plaque Suppression
Protocol: as §1

T. gondii tachyzoites [2] = test: In vivo acute toxoplasmosis in mice (survival); parameters: species or system Toxoplasma gondii; CD-1 mice; details: TSA 0.5 mg/kg, SAHA 50 mg/kg, scriptaid 3.5 mg/kg i.p. once daily; valproic acid 300 mg/kg oral daily
Protocol: Specifically, female CD-1 mice (20 g) were inoculated in the sub-scapular region with 5,000 T. gondii tachyzoites on Day 0. […] The dose of scriptaid was not optimized in this experiment. In this study, valproic acid was administered orally in the drinking water at a dose of 300 mg/kg. Survival was monitored twice daily beginning on day 9 of the study. The results are depicted graphically in FIG. 5A and in tabular form in FIG. 5B.

human tumor cell lines = details: variety of human tumor cell lines in tissue culture; cited from earlier work
Cryptosporidium parvum = test: Real-time PCR analysis of C. parvum oocyst production in infected HCT-8 cells; assay type: cell-based; details: 48 hours, apicidin 70 ng/ml, SAHA 2.5 ug/ml
Protocol: Monolayer cultures of HCT-8 human colon cells growing in 24-well plastic tissue culture dishes were infected with C. parvum oocysts for 3 hours. […] The cells were harvested, and DNA was extracted. The DNA was analyzed for the production of C. parvum oocysts from the infected cells using real-time PCR and DNA primers that specifically amplify the C. parvum oocysts wall protein (COWP).

[3] = tested on: HS68 human foreskin fibroblast cells; test: Toxicity to HS68 host cells; assay type: cell-based; details: 10 uM
[4] = tested on: MCF-7 human breast cancer cells; test: ESR free radical (ROS) measurement in MCF-7 cell suspensions with DMPO; assay type: cell-based; details: 10 uM NSC3852, 8 uM NSC2039
Protocol: Free Radical Measurements: All ESR measurements were conducted using a Bruker EMIR spectrometer (Bruker Instruments Inc., Billerica, Mass.) and a flat-cell assembly. Hyperfine couplings were measured (to 0.1 G) directly from magnetic field separation using potassium tetraperoxochromate (K3CrO8) and 1,1-diphenyl-2-picrylhydrazyl as reference standards. The relative radical concentration was estimated by multiplying half of the peak height by (ΔHpp)^2, where (ΔHpp) represents peak-to-peak width. The Acquisit program was used for data acquisitions and analyses. MCF-7 cells (2.0×10^6 cells/60-mm^2 dish) were harvested 48 h after plating by trypsinization and collected at room temperature by centnfugation (225 g, 5 min). Cells were washed once with ice-cold PBS and resuspended in ice-cold PBS at 2×10^6 cells/ml. Radical production was measured in the presence of the spin trap 5,5-dimethyl-1-pyrroline-N-oxide (DMPO; Aldrich Chemical Co., Milwaukee, Wis.). DMPO (200 mM) and 1×10^6 cells test agents were mixed in 1.0 ml of PBS, incubated at 37° C. for 5 mm, and then transferred to a flat cell for ESR measurements.

[5] = RH strain T. gondii in HS68 cells, 48-well plate, 48-72 hours post-infection, mean+/-SEM, read-out: IC50 (uM) Tachyzoite Count
[6] = RH strain T. gondii in HS68 cells, 48-well plate, mean+/-SEM

## 4-phenylbutyrate
T. gondii tachyzoites [1]; [5]
  IC50: 5350 ± 2750 µM
T. gondii
  MIC IC50 (ratio MIC/IC50): 3.1
T. gondii; [6]
  MIC (uM) Plaque Suppression: 16,700 ± 3300 uM

## NC(=O)c1cccnc1 [nicotinamide]
T. gondii tachyzoites [1]
  activity against T. gondii in in vitro assays: minimal activity

## CCCC(=O)[O-].[Na+] [Sodium butyrate, sodium butyrate]
T. gondii tachyzoites [1]; Toxoplasma gondii, Hs68, read-out: IC50 (uM) Tachyzoite Count
  IC50: 1000 ± 455 µM
T. gondii tachyzoites [1]; Toxoplasma gondii, Hs68, read-out: IC50 range of carboxylate inhibitors
  IC50: 1000 to 5000 µM
T. gondii
  MIC IC50 (ratio MIC/IC50): 4.2
  MIC: 4200 ± 800 µM

## O=C(CCCCCCC(=O)Nc1ccccc1)NO [SAHA, suberoylanilide hydroxamic acid]
T. gondii tachyzoites [1]; tachyzoite IC50 vs literature tumor cell concentrations
  times tachyzoites are more sensitive than human tumor cells: 10-200 times
T. gondii; 1 uM, 48 hours
  state of HS68 monolayer of T. gondii-infected treated cells: completely intact
T. gondii; [6]
  MIC: 0.4 ± 0.1 µM (≈ 0.106 µg/mL)
T. gondii tachyzoites [2]
  control of acute toxoplasmosis in mice: showed in vivo efficacy
Human tumor cell lines
  concentration reducing tumor cell numbers and inducing tumor cell apoptosis: 1 to 20 µM
Cryptosporidium parvum
  number of oocysts/ml (mean ± S.D. n = 6): 252.8 ± 280 oocysts/ml
Cryptosporidium parvum; vs 0.1% DMSO
  % Reduction in oocysts numbers: 96.2%
[3]
  toxicity to HS68 cells at highest concentration tested: no discernable toxicity

## O=C(CCCCCCC(=O)NO)NO [SBHA, suberic bishydroxamic acid]
T. gondii tachyzoites [1]; [5]
  IC50: 0.213 ± 0.11 µM
T. gondii
  MIC IC50 (ratio MIC/IC50): 58.7
T. gondii; [6]
  MIC (uM) Plaque Suppression: 12.5 ± 5 µM (≈ 2.55 µg/mL)
[4]
  ESR signal indicative of ROS production in MCF-7 cells: rapid and robust ESR signals
